Results on one molecule are retold here after the NIST ThermoML archive (doi:10.1021/je034066w).

± gives the expanded uncertainty stated by the source.

For this data set the following is noted: Liquid.

Consider `CC(C)O` [propan-2-ol], for which the Critical pressure (Direct measurement) stood at 4755 ± 48 kPa. Further, the Critical temperature (Visual observation in a stirred cell) amounted to 508.15 ± 0.12 K.
